Values of other authors as cited in patent US5866682A (priority 1997, dated 1999).

Test system: α3β2 and α3β4 receptors

α-conotoxin MII
binding sites and toxin molecules required to block function: has two binding sites on α3β2 and α3β4 receptors expressed in Xenopus oocytes and only one toxin molecule is required to block function | block of native nAChRs: blocks native α3β2-containing nAChRs and α3β4 conataining nAChRs | discrimination between the α3β2 and α3β4 interface: four orders-of-magnitude
